BigSolDB 2.1

O=C(O)c1ccc(Br)cn1
solubility (mole fraction)
Conditions	in 1,4-dioxane	in THF	in acetonitrile	in ethanol	in ethyl acetate	in isopropanol	in methanol	in methyl acetate	in n-butanol	in n-propanol
278.15 K	–	0.0326	0.00178	0.00865	0.00491	0.0089	0.00787	0.00916	0.0119	0.0102
283.15 K	–	0.0374	0.00219	0.0103	0.00583	0.0107	0.00924	0.0104	0.014	0.0126
288.15 K	0.0326	0.0426	0.00266	0.0122	0.00674	0.0128	0.0107	0.0117	0.0163	0.0152
293.15 K	0.0378	0.0478	0.0032	0.0144	0.00802	0.0152	0.0124	0.0131	0.0189	0.0182
298.15 K	0.0435	0.0543	0.00381	0.0175	0.00937	0.018	0.0145	0.0147	0.0218	0.0216
303.15 K	0.0502	0.0611	0.00449	0.0209	0.011	0.0213	0.017	0.0164	0.0249	0.0254
308.15 K	0.0574	0.0663	0.00524	0.0241	0.0126	0.025	0.0196	0.0182	0.0283	0.0296
313.15 K	0.0656	0.0742	0.00607	0.028	0.0144	0.0292	0.0229	0.0201	0.0319	0.0342
318.15 K	0.0744	0.0803	0.00698	0.0323	0.0165	0.034	0.0271	0.0221	0.0358	0.0391
323.15 K	0.0831	0.0886	0.00797	0.0379	0.0186	0.0394	0.0315	0.0244	0.0399	0.0445
